Laboratory results as given in US20050250726A1, “Immunostimulatory nucleic acid for treatment of non-allergic inflammatory diseases” (University of Iowa Research Foundation, priority 2001, published 2005).
Strand notation (5' to 3'): a small letter for the sugar, then the base; units joined by * are phosphorothioate-linked, units joined directly phosphodiester-linked; [ ] holds rarer units or linkages, { } end groups; capitals alone tell only the bases. d = 2'-deoxy (DNA)

Columns and labels:
COX-2 protein = test: Western blotting of COX-2 protein in RAW 264.7 cells; assay type: cell-based, murine
Experimental: Western blotting. Protein was isolated from cultured cells by resuspending in lysis buffer [50 mM Tris (hydroxymethyl) aminomethane, pH 7.5, 150 mM NaCl, 100 μg/ml PMSF, 1 μg/ml aprotinin, 1 μg/ml leupeptin, 1 mM diethyldithiocarbamic acid, 1% NP-40 and 1% sodium deoxycholate]. Cells were lysed by sonication (20 s, 4° C.). Debris was eliminated by centrifugation (15 min, 1000 g). Protein concentration was measured using a commercial reagent based on BCA staining (Pierce, Rockford, Ill.), using BSA as an internal standard. Equal amounts of cellular protein were loaded onto a 10% polyacrylamide gel and separated by electrophoresis (200 V for 45 min). Proteins were then transferred to nitrocellulose (100 V for 1 h) and the membrane was blocked with 5% non-fat dry milk. The nitrocellulose was then incubated with a rabbit polyclonal primary antibody (anti-COX-2, 1:1000, Cayman; anti-COX-1, 1:1000, Santa Cruz) overnight at 4° C. Antibody labeling was detected using enhanced chemiluminescence (ECL; Amersham) as per the manufacturer's instructions. Specificity of the anti-cyclooxygenase antibody was confirmed with the use of ram seminal vesicle PGHS-1 (COX-1, Oxford Biomedical Research, Oxford, Mich.) and sheep placenta PGHS-2 (COX-2, Cayman).
Films and photographs of RPA or Western blots were scanned in at 6000 DPI using an Epson Expression 1600 scanner. […]

COX-2 mRNA = test: RNase protection assay for COX-2 mRNA in RAW 264.7 macrophages; assay type: cell-based, murine; details: ODN 3 μg/ml; for increase in COX-2 mRNA: 0-24 h
Experimental: RNase protection assay. A murine COX-2 cDNA fragment (nucleotides 205-505; GenBank accession no. M88242) was synthesized by RT-PCR using mouse brain RNA as a template and cloned into pGEM-4. Fragments of the RPL32-4A gene were also cloned into pGEM-4. Dudov K P et al. (1984) Cell 37:457-68. L32 served as an internal loading control. RNase protection assay (RPA) for the detection of COX-2 was performed as previously described. Stadler A et al. (1998) In: Neurodegeneration Methods and Protocols, Harry J and Tilson H A, eds., Humana Press, Totowa, N.J., p. 53. Briefly, for the synthesis of a ^32P-radiolabeled anti-sense RNA probe, equimolar mixtures of the linearized COX-2 and L32 templates were used. Hybridization reactions were performed overnight at 56° C. Following RNase digestion, the RNA duplexes were isolated by electrophoresis in a standard 7.5% acrylamide/12 M urea/0.5% TBE sequencing gel. Dried gels were placed on BMR filmhand were exposed at −70° C.
Films and photographs of RPA or Western blots were scanned in at 6000 DPI using an Epson Expression 1600 scanner. Densitometric analysis was performed using Vtrace (developed at the University of Iowa Image Analysis Facility) operating on a SGI O2 Workstation. Average and integrated OD measurements were made on user-selected regions. A Kodak photographic step tablet was used to calibrate optical density.
Immunostimulatory ODN induce COX-2 mRNA. RAW 264.7 macrophages were incubated with media or ODN (3 μg/ml) for varying time periods (0, 2, 4, 6 and 24 h) and RNA isolated for COX-2 expression using RPA.

[1] = system: BALB/c mouse spleen cells; test: IFN-γ secretion from CpG DNA-stimulated spleen cells (ELISA); assay type: cell-based; details: for IFN-γ: BALB/c spleen cells preincubated 30 min with SC-58236 0.125 μM, PGE2 0.1 μM, 2B5 or control antibody 6.7 μg/mL, then CpG ODN 1826 0.3 μg/mL for 24 h, supernatant ELISA
Experimental: Cell culture conditions. RAW 264.7 cells and murine spleen cells were cultured in RPMI 1640 supplemented with 10% FCS, 2 mM L-glutamine, 0.05 mM 2-mercaptoethanol, penicillin (100 U/ml) and streptomycin (100 U/ml) in 12-well tissue culture plates (Costar, Corning, N.Y.). Cells were incubated in media alone or media supplemented with ODN. Supernatants from triplicate cultures were harvested and stored at −70° C. before analysis for PG or cytokine concentration. Cells were subsequently harvested for either RNA or protein isolation. In some cultures, ODN-stimulated spleen cells were incubated in the presence of PGE2 (0.1 μM), piroxicam (16 μM), SC-58236 (0.125 μM), anti-PGE2 antibody 2B5 (6.7 μg/ml), or isotype antibody MOPC21 (6.7 μg/ml). For quantitative analysis of macrophage PG production, RAW 264.4 cells were cultured at 1×10^5 cells/ml in media or media with ODN (3 μg/ml). After 24 h of culture the supernatant was removed and cells were incubated in PBS supplemented with arachidonic acid (10 μM).
Cytokine quantification. IFN-γ detection was performed using a cytokine ELISA kit from PharMingen (San Diego, Calif.). Immulon-1B microtiter plates were obtained from Dynatech (Chantilly, Calif.). After incubation with peroxidase substrate (tetramethylbenzidine) the plates were read at 650 nm on a microplate reader (Cambridge Technology, Watertown, Mass.).
COX inhibitors enhance IFN-γ secretion induced by CpG DNA. CpG DNA is known to elicit strong Th1-like immune responses both in vitro and in vivo. Klinman D M et al. (1996) Proc Natl Acad Sci USA 93:2879-83. In contrast, PGE2, which is induced by CpG DNA, can inhibit Th1 responses. Betz M et al. (1991) J Immunol 146:108-13. Murine spleen cells were stimulated with CpG DNA in the presence of piroxicam, a non-selective COX inhibitor, or SC-58236, a selective inhibitor of COX-2, and quantified IFN-γ production. […] Neither COX inhibitor alone stimulated IFN-γ secretion.
Inhibition of PGE2 synthesis plays an important role in enhancing IFN-γ secretion. The blockade of the COX enzyme will inhibit synthesis of multiple PG (e.g., PGE2, PGD2 and dPGJ2), all of which potentially can inhibit Th1 immune responses. To assess the role of PGE2 in the modulation of IFN-γ secretion elicited by CpG ODN, a neutralizing antibody (2B5) specific for PGE2 was added into CpG DNA-stimulated spleen cell-cultures. […] The enhancement was similar in magnitude to that observed when COX inhibitors were added to the cultures (Table 3).

YAC-1 target cells = test: NK cytotoxicity assay, 4-h 51Cr-release against YAC-1 target cells; assay type: cell-based, mouse; details: for NK activity, Mouse Spleen Cells (LU/10^6): B cell-depleted C57BL/6 spleen cells, 18 h, IL-2 100 U/mL, ODN 1585 5 μg/mL, SC-58236 0.25 μg/mL, PGE2 0.1 μg/mL, 1 LU = 30% 51Cr release; for effect on NK lytic activity induced by CpG DNA: B cell-depleted murine spleen cells stimulated with ODN 1585
Experimental: Cytotoxicity assay. Spleen cells from C57BL/6 mice were depleted of B cells using paramagnetic beads coated with goat anti-mouse Ig as previously described. Ballas Z K et al. (1990) J Immunol 145:1039-45; Ballas Z K et al. (1993) J Immunol 150:17-30. […] […] Cultures were harvested at 18 h and the cells were used as effectors in a standard 4-h ^51Cr-release assay against YAC-1 target cells labeled with Na^51CrO4 (Amersham Life Science, Arlington Heights, Ill.) as described previously. Ballas Z K et al. (1990) J Immunol 145:1039-45; Ballas Z K et al. (1993) J Immunol 150:17-30; Ballas Z K et al. (1990) J Allergy Clin Immunol 85:453-39. One lytic unit (LU) was defined as the number of the cells needed to exert 30% specific lysis.
It has previously been reported that certain CpG DNA sequences can elicit strong lytic activity in NK cells (Ballas Z K et al. (1996) J Immunol 157:1840-45), whereas exogenous PGE2 is known to inhibit the activity of NK cell killing (Kanar M C et al. (1988) J Clin Immunol 8:69-79; Young M R et al. (1986) J Natl Cancer Inst 77:425-29). B cell-depleted murine spleen cells were stimulated with the stimulatory ODN 1585 in the presence or absence of a COX inhibitor.

BALB/c mice = test: Serum IFN-γ in vivo after COX inhibitor and ODN 1826 injection; parameters: species or system mouse; details: SC-58236 20 mg/kg i.p. 1 h before 30 μg ODN 1826, serum 5 h post ODN, FIG. 3
Experimental: In vivo experiments. BALB/c mice were injected i.p. with 0.2 ml of diluent or SC-58236 (20 mg/kg). One hour later, mice were injected with 30 μg of ODN 1826 or PBS. Five hours later, the mice were anaesthetized with Avertin (Aldrich, Milwaukee, Wis.) and blood was obtained from the retro-orbital plexus. The blood was allowed to clot on ice for 1 h and centrifuged at 10,000 r.p.m. for 10 min. The serum was used for IFN-γ determination by ELISA (as described above).
COX inhibitors augment IFN-γ production in vivo. To determine whether COX inhibitors could also enhance the immune stimulatory effects of CpG-DNA in vivo, mice were treated with COX inhibitors (piroxicam or SC-58236) and subsequently injected with stimulatory ODN 1826. Serum IFN-γ levels were quantified 5 h post ODN injection.

Row | Molecule | COX-2 protein induction (COX-2 protein) | increase in COX-2 mRNA (COX-2 mRNA) | IFN-γ [1] [pg/mL] | NK activity, Mouse Spleen Cells (LU/10^6) (YAC-1 target cells) | effect on NK lytic activity induced by CpG DNA (YAC-1 target cells) | further results
1 | ODN 1982: non-stimulatory control ODN (dT*dC*dC*dA*dG*dG*dA*dC*dT*dT*dC*dT*dC*dT*dC*dA*dG*dG*dT*dT) | no induction | no significant increase | – | – | – | –
2 | ODN 1826 | marked induction | effectively increased COX-2 mRNA | 1960 ± 247 | – | – | COX-2 mRNA levels over the 24-h time period (COX-2 mRNA): remained elevated; time to induction of COX-2 mRNA expression (COX-2 mRNA): ≤ 2 h; COX-2 mRNA, 6 h level fold greater than 0 h (COX-2 mRNA; 6 h): 21 fold
3 | ggGGTCAACGTTGAgggggG (dG*dG*dGdGdTdCdAdAdCdGdTdTdGdAdG*dG*dG*dG*dG*dG) [ODN 1585, immunostimulatory CpG ODN] | – | – | – | 7.3 | – | –
4 | CCCCC[C@H](O)/C=C/[C@H]1[C@H](O)CC(=O)[C@@H]1C/C=C\CCCC(=O)O [PGE2, prostaglandin E2] | – | – | 0 ± 4 | 0.0 | abolished the lytic activity | –
5 | NS(=O)(=O)c1ccc(-n2nc(C(F)(F)F)cc2-c2ccc(Cl)cc2)cc1 [SC-58236] | – | – | 0 ± 2 | 0.0 | enhanced the NK activity | enhancement of IFN-γ secretion from CpG DNA-stimulated spleen cells ([1]; inhibitor added to CpG DNA-stimulated murine spleen cells): 2 fold; increase in serum IFN-γ above mice injected with ODN 1826 alone (BALB/c mice): 4.6 fold
